Experimental data: US9546179B2, “Heterocycle amido alkyloxy substituted quinazoline derivative and use thereof” (priority 2011, dated 2017)

Each compound was assayed against T1, receptor tyrosine kinase EGFR (Homo sapiens, UniProt P00533) (assay: Inhibitory effect on receptor tyrosine kinase EGFR (ELISA, Poly(Glu, Tyr)4:1, PY99 antibody)). Details: ATP 4 μM, 1 hour at 37° C.
T1 construct: purchased Shanghai 3bio Technology Co., Ltd. Lot No. 4018780925
Format: biochemical
Experimental: Poly(Glu, Tyr)4:1 was diluted into 100 μg/ml by PBS without potassium. Enzyme label plate was coated with 37 μl/well at 37° C. overnight,
The liquid in the wells was removed. The plate was rinsed by T-PBS for 5 minutes, and dried at 37° C. after repeated 3 times.
The testing sample was diluted to the concentration concerned by reaction buffer solution, and added into the wells of the coated enzyme label plate. The concentration diluted should realize 1.0000 μg/ml, 0.1250 μg/ml, 0.0156 μg/ml, 0.00195 μg/ml and 0.00024 μg/ml in the 100 μl reaction.
Adding in ATP solution (4 μM of final concentration) diluted by reaction buffer solution,
Finally, the tyrosine kinase diluted by reaction buffer solution was added, and forming the reaction with 100 μl total volume.
Meanwhile, negative control wells and enzyme-free control wells were prepared. The reaction was kept in the dark wet box for 1 hour at 37° C. The plate was rinsed by T-PBS for three times after the reaction ended, and blocked by 1% BSA […] for 30 min, and then, PY99 antibody (1:1000 diluted by 0.05% PBST with 1% BSA) was added in 100 μl/well. After incubated at 37° C. for 30 minutes, the plate was rinsed by T-PBS for three times, and the goat anti-mouse IgG marked with HRP (1 mg/ml 1:1000 diluted by 0.05% PBST with 1% BSA) was then added in 100 μl/well. After incubated at 37° C. for 30 minutes, the plate was rinsed by T-PBS for three times.
Colorimetric solution OPD was added in 100 μl/well for 20 minutes' reaction in the dark side at the room temperature. Colorimetric substrate solution OPD was the solution of 0.1 mol/L citric acid-disodium hydrogen phosphate buffer (pH 5.0) with 20 mmol/L OPD and 12 mmol/L H2O2 (freshly prepared when using).
50 μl of 2M H2SO4 (2 mol/L sulfuric acid containing 0.1 mol/L sodium sulfate) was added in to terminate the reaction, and the A492 value was read with adjustable wavelength micro late enzyme-labeling instrument VERSAmax.
The inhibition rate of samples is calculated by the following formula: […]

T1 sequence (P00533 25-1210): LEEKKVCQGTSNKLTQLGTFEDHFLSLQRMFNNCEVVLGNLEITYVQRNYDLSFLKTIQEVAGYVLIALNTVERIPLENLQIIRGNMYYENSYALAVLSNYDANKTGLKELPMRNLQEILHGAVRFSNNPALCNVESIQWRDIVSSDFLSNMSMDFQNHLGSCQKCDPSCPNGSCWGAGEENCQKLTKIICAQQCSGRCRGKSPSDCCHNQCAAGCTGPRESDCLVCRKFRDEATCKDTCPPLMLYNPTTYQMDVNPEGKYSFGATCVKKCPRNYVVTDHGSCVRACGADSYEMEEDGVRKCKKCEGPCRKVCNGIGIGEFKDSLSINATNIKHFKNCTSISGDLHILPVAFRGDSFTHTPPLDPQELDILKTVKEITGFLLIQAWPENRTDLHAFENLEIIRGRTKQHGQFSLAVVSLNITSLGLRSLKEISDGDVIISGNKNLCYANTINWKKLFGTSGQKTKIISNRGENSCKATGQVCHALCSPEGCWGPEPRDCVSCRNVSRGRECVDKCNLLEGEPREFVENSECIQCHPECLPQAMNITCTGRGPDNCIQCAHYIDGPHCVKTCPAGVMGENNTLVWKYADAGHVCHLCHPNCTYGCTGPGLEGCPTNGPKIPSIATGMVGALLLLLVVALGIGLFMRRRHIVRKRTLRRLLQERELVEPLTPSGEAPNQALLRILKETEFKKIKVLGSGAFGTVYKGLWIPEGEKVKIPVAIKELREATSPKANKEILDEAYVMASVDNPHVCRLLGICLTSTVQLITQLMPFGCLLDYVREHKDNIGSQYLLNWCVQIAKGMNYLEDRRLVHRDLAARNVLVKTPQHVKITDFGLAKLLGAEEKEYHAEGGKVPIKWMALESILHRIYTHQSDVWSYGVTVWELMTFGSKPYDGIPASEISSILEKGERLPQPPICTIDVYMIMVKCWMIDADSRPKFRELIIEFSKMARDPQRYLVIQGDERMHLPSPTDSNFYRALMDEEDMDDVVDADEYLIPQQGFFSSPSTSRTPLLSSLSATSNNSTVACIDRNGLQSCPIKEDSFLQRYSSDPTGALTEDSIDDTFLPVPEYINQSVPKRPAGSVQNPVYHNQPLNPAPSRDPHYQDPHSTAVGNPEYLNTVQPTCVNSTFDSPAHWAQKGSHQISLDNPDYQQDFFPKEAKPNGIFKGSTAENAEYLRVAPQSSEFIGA

Row | Structure (SMILES) | IC50
1 | COc1cc2ncnc(Nc3ccc(F)c(Cl)c3)c2cc1OCCCN1CCC2(CCN(C)C2=O)C1 (centres unmarked) [Example 81, 4-(3′-chloro-4′-fluorophenylamino)-6-[3-(2-methyl-2,7-diazaspiro[4.4]-nonane-1-ketone-7-yl)-propoxy]-7-methoxyquinazoline] | 10 to 100 nM
2 | COc1cc2ncnc(Nc3cccc(Cl)c3F)c2cc1OCCCN1CC2(CNC(=O)C2)C1 [Example 33] | 10 to 100 nM
3 | COc1cc2ncnc(Nc3cccc(Cl)c3F)c2cc1OCCCN1CC2(C1)CN(C)C(=O)O2 [Example 37, 4-(3′-chloro-2′-fluorophenylamino)-6-[3-(7-methyl-5-oxa-2,7-diazaspiro[3.4]octane-6-ketone-2-yl)-propoxy]-7-methoxyquinazoline] | 0.1 to 10 nM
4 | COc1cc2ncnc(Nc3ccc(F)c(Cl)c3)c2cc1OCCN1CCC2(C1)CN(C)C(=O)O2 (centres unmarked) [Example 59, 4-(3′-chloro-4′-fluorophenylamino)-6-[2-(3-methyl-1-oxa-3,7-diazaspiro[4.4]nonane-2-ketone-7-yl)-oxethyl]-7-methoxyquinazoline] | 10 to 100 nM
5 | COc1cc2ncnc(Nc3ccc(F)c(Cl)c3)c2cc1OCCCN1CCC2(CCNC2=O)C1 (centres unmarked) [Example 80, 4-(3′-chloro-4′-fluorophenylamino)-6-[3-(2,7-diazaspiro[4.4]-nonane-1-ketone-7-yl)-propoxy]-7-methoxyquinazoline] | 0.1 to 10 nM
6 | C#Cc1cccc(Nc2ncnc3cc(OC)c(OCCCN4C5CCC4COC5)cc23)c1 [Example 42, 4-(3′-ethynylphenylamino)-6-[3-(3-oxa-8-azabicyclo[3.2.1]octane-8-yl)-propoxy]-7-methoxyquinazoline] | 100 to 1000 nM
7 | COc1cc2ncnc(Nc3ccc(F)c(Cl)c3)c2cc1OCCN1CC2(C1)CN(C)C(=O)O2 [Example 61, 4-(3′-chloro-4′-fluorophenylamino)-6-[2-(7-methyl-5-oxa-2,7-diazaspiro[3.4]octane-6-ketone-2-yl)-oxethyl]-7-methoxyquinazoline] | 10 to 100 nM
8 | COc1cc2ncnc(Nc3cc(Cl)ccc3F)c2cc1OCCCN1CCC2(CC1)CC(=O)N(C)C2 [Example 24, 4-(5′-chloro-2′-fluorophenylamino)-6-[3-(2-methyl-2,8-diazaspiro[4.5]decane-3-ketone-8-yl)-propoxy]-7-methoxyquinazoline] | 10 to 100 nM
9 | COc1cc2ncnc(Nc3cc(Cl)ccc3F)c2cc1OCCCN1CCC2(CCNC2=O)C1 (centres unmarked) [Example 22, 4-(5′-chloro-2′-fluorophenylamino)-6-[3-(2,7-diazaspiro[4.4]nonane-1-ketone-7-yl)-propoxy]-7-methoxyquinazoline] | 10 to 100 nM

More lines, now with the values ahead:

Row | IC50 | Structure (SMILES)
10 | 10 to 100 nM | C#Cc1cccc(Nc2ncnc3cc(OC)c(OCCCN4CCC5(COC5)C4)cc23)c1 [Example 75, 4-(3′-ethynylphenylamino)-6-[3-(2-oxa-6-azaspiro[3.4]octane-6-yl)-propoxy]-7-methoxyquinazoline]
11 | 100 to 1000 nM | C#Cc1cccc(Nc2ncnc3cc(OC)c(OCCCN4CCC5(CCOCC5)C4)cc23)c1 [Example 41, 4-(3′-ethynylphenylamino)-6-[3-(8-oxa-2-azaspiro[4.5]decane-2-yl)-propoxy]-7-methoxyquinazoline]
12 | 10 to 100 nM | C#Cc1cccc(Nc2ncnc3cc(OC)c(OCCCN4CCC5(CC4)CNC(=O)C5)cc23)c1 [Example 43, 4-(3′-ethynylphenylamino)-6-[3-(2,8-diazaspiro[4.5]decane-3-ketone-8-yl)-propoxy]-7-methoxyquinazoline]
13 | 0.1 to 10 nM | C#Cc1cccc(Nc2ncnc3cc(OC)c(OCCCN4CCC5(CCN(C(C)=O)C5)C4)cc23)c1 (centres unmarked) [Example 51, 4-(3′-ethynylphenylamino)-6-[3-(7-acetyl-2,7-diazaspiro[4.4]-nonane-2-yl)-propoxy]-7-methoxyquinazoline]
14 | 10 to 100 nM | COc1cc2ncnc(Nc3cc(Cl)ccc3F)c2cc1OCCCN1CCC2(COC2)C1 [Example 65]
